Consider 28 compounds from patent EP1420018A1, “Pyrido[1,2-a]benzimidazole derivatives useful in treating central nervous system disorders” (Ortho-McNeil Pharmaceutical, Inc., priority 1996, dated 1998).

Read-outs that look alike come from different tables or passages of the source. Where only a bound is given, the exact number is not on record here.

Test [1] deals with metrazol-induced convulsions. In words: Suppression of Metrazol-Induced Convulsions in Adult Male Mice. It counts as in vivo. Conditions: for ED50: Mus musculus, ip.
Test [2] relates to Anxiety in the Adult Male Rat. In words: Suppression of Anxiety in the Adult Male Rat (rat conflict test). The class given is in vivo, rats. Conditions: for minimal effective dose: Rattus norvegicus. In outline: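 Male rats, 48 h water- and 24 h food-deprived, trained with 200 unpunished licks, tested at expected peak drug activity. Every 20th lick punished by 0.2-s shock over a 3-min session; increase in median shocks versus concurrent vehicle assessed by one-tailed Mann-Whitney test (p<0.05), validated with a positive-control anxiolytic.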

The subject of test [3] is metrazol-induced convulsions. As to the kind of experiment: Suppression of Metrazol-Induced Convulsions in Adult Male Mice. To be noted: for ED50: Mus musculus, po. The class given is in vivo.
In test [4] the target is benzodiazepine site of the GABA-A receptor. As to the kind of experiment: Benzodiazepine Receptor Binding Assay (inhibition of 3H-flunitrazepam binding). Conditions: read-out: GABAA Receptor Binding IC50.
Where [5] appears, read: po, rat, po, read-out: Rat Conflict (MED, mg/kg) po.
The mark [6] stands for this setting: ip, rat, ip, read-out: Rat Conflict (MED, mg/kg) ip.
Where [7] appears, read: block of clonic convulsions, male CD1 mice, >30 = active dose not determined.
Setting [8] is: ip, minimum effective dose, increase in shocks tolerated, >10 = active dose not determined, read-out: Rat Conflict (MED, mg/kg) ip.
[9] abbreviates: po, minimum effective dose, increase in shocks tolerated, >10 = active dose not determined, read-out: Rat Conflict (MED, mg/kg) po.
Setting [10] is: inhibition of 3H-flunitrazepam (ca. 3 nM) binding to membranes, 25°C, over 10,000 = not active.

Consider `CCOCCN1C2=C(C(=O)Nc3ccnc(F)c3)C(=O)CCN2c2ccc(F)cc21` [Compound 130], for which the values for the 50% effective dose (ED50) in test [1] (mouse) and in test [3] (mouse) were below 1 mg/kg and around 0.8 mg/kg, respectively. Also, in test [2] (setting [5]), the minimal effective dose amounted to 1 mg/kg. Further, the half-inhibitory concentration (IC50) in test [4] was 2.27 nM.
On to `CN(C)CCCN1C2=C(C(=O)Nc3c(F)cccc3F)C(=O)CCN2c2ccc(F)cc21` [Compound 66], for which the ED50 in test [1] (mouse) is above 30 mg/kg; in test [3] (mouse), above 10 mg/kg. In addition, the minimal effective dose in test [2] (setting [6]) was above 10 mg/kg. Besides, in test [4], the concentration for half-maximal inhibition (IC50) came out at 83.7 nM.
As for `O=C1CCN2C(=C1C(=O)Nc1ccccc1F)N(CCO)c1cc(F)ccc12` [Compound 168, 7-Fluoro-1,2-dihydro-5-(2-hydroxyethyl)-3-oxo-N-(2-fluorophenyl)pyrido[1,2-a]benzimidazole-4-carboxamide], the ED50 was below 1 mg/kg in test [1] (mouse) and below 30 mg/kg in test [3] (mouse). The minimal effective dose in test [2] (setting [6]) was 10 mg/kg; in test [2] (setting [5]), above 10 mg/kg. In test [4], the IC50 worked out at 1.17 nM.
For `CN1CCCC(N2C3=C(C(=O)Nc4ccccc4F)C(=O)CCN3c3ccc(F)cc32)C1` (stereo not shown) [Compound 87], the 50% effective dose (ED50) in test [1] (setting [7]) is 3 mg/kg; in test [3] (setting [7]), 10 mg/kg. Also, the minimal effective dose in test [2] (setting [8]) and in test [2] (setting [9]) was above 10 mg/kg throughout. Besides, in test [4] (setting [10]), the half-inhibitory concentration (IC50) came out at 30.7 nM.
On to `CCOCCN1C2=C(C(=O)Nc3ccc(S(C)(=O)=O)s3)C(=O)CCN2c2ccc(F)cc21` [Compound 121], for which the ED50 in test [1] (mouse) was above 1 mg/kg; in test [3] (mouse) it was above 30 mg/kg. In test [2] (setting [5]), the minimal effective dose is above 10 mg/kg. Besides, the IC50 in test [4] came out at 84 nM.
For the compound `CCOCN1C2=C(C(=O)Nc3ccccc3F)C(=O)CCN2c2ccc(F)cc21` [Compound 172], the results for the median effective dose (ED50) in test [1] (mouse) and in test [3] (mouse) were 0.01 mg/kg and 0.1 mg/kg, respectively. Also, the figures for the minimal effective dose in test [2] (setting [6]) and in test [2] (setting [5]) were at most 10 mg/kg and 0.3 mg/kg, respectively. In test [4], the half-maximal inhibitory concentration (IC50) was 0.14 nM.
With `N#CCN1C2=C(C(=O)Nc3ccccc3F)C(=O)CCN2c2ccc(F)cc21` [Compound 89], the ED50 in test [1] (setting [7]) is below 1 mg/kg; in test [3] (setting [7]), 0.5 mg/kg. In addition, the minimal effective dose in test [2] (setting [9]) came out at 1 mg/kg. Also, in test [4] (setting [10]), the IC50 is 1.84 nM.
With `O=C1CCN2C(=C1C(=O)Nc1ccccc1F)N(CCNS(=O)(=O)c1ccc(C(F)(F)F)cc1)c1cc(F)ccc12` [Compound 39], the ED50 in test [1] (setting [7]) was above 1 mg/kg; in test [3] (setting [7]) it was above 3 mg/kg. In addition, the minimal effective dose in test [2] (setting [9]) was above 10 mg/kg. For the same compound, the IC50 in test [4] (setting [10]) came out at 122 nM.
Regarding `CCOCN1C2=C(C(=O)Nc3ccc(OC)cc3)C(=O)CCN2c2ccc(F)cc21` [Compound 104], the ED50 in test [1] (mouse) is below 1 mg/kg; in test [3] (mouse), below 3 mg/kg. In test [2] (setting [5]), the minimal effective dose worked out at 0.1 mg/kg. In addition, the half-maximal inhibitory concentration (IC50) in test [4] is 1.04 nM.
Turning to `COCCNCCN1C2=C(C(=O)Nc3ccccc3F)C(=O)CCN2c2ccc(F)cc21` [Compound 52], the 50% effective dose (ED50) in test [1] (mouse) and in test [3] (mouse) was 1 mg/kg each time. The figures for the minimal effective dose in test [2] (setting [6]) and in test [2] (setting [5]) were around 10 mg/kg and 10 mg/kg, respectively. Besides, the 50% inhibitory concentration (IC50) in test [4] was determined as 7.42 nM.
Turning to `O=C1CCN2C(=C1C(=O)Nc1ccccc1F)N(CCNS(=O)(=O)c1ccccc1)c1cc(F)ccc12` [Compound 44], the results for the ED50 in test [1] (setting [7]) and in test [3] (setting [7]) were at most 1 mg/kg and below 30 mg/kg, respectively. Also, the minimal effective dose in test [2] (setting [8]) and in test [2] (setting [9]) was above 10 mg/kg each time. In addition, the IC50 in test [4] (setting [10]) was determined as 10.1 nM.
Consider `O=C1CCN2C(=C1C(=O)Nc1ccccc1F)N(CCNC(=O)c1ccccc1C(F)(F)F)c1cc(F)ccc12` [Compound 76], for which the ED50 was above 1 mg/kg in test [1] (mouse) and above 30 mg/kg in test [3] (mouse). In addition, the minimal effective dose in test [2] (setting [5]) is above 10 mg/kg. Also, in test [4], the IC50 was found to be 40.9 nM.
The corresponding values for `COCCN1C2=C(C(=O)Nc3ccc(Br)s3)C(=O)CCN2c2ccc(F)cc21` [Compound 144] are below 1 mg/kg, around 10 mg/kg, above 10 mg/kg and 5.26 nM.
On to `CS(=O)(=O)NCCN1C2=C(C(=O)Nc3ccccc3F)C(=O)CCN2c2ccc(F)cc21` [Compound 50], for which the ED50 in test [1] (mouse) was 1 mg/kg; in test [3] (mouse) it was below 30 mg/kg. Besides, the minimal effective dose in test [2] (setting [6]) was above 10 mg/kg. For the same compound, in test [4], the 50% inhibitory concentration (IC50) came to 7.7 nM.
In the case of `CN(C)C=NCCN1C2=C(C(=O)Nc3ccccc3F)C(=O)CCN2c2ccc(F)cc21` [Compound 40], the 50% effective dose (ED50) in test [1] (setting [7]) is below 1 mg/kg; in test [3] (setting [7]), around 30 mg/kg. The minimal effective dose in test [2] (setting [9]) worked out at 10 mg/kg. Moreover, the concentration for half-maximal inhibition (IC50) in test [4] (setting [10]) stood at 35 nM.
Consider `CN(C)CCN1C2=C(C(=O)Nc3c(F)cc(F)cc3F)C(=O)CCN2c2ccc(F)cc21` [Compound 54], for which the ED50 in test [1] (mouse) was 10 mg/kg; in test [3] (mouse) it was above 30 mg/kg. For the same compound, the minimal effective dose in test [2] (setting [6]) is above 10 mg/kg. In addition, the half-inhibitory concentration (IC50) in test [4] stood at 208 nM.
For the compound `O=C1CCN2C(=C1C(=O)Nc1ccccc1F)N(CCNC(=O)c1cccc(C(F)(F)F)c1)c1cc(F)ccc12` [Compound 75], the 50% effective dose (ED50) in test [1] (mouse) was above 1 mg/kg; in test [3] (mouse), above 30 mg/kg. Moreover, the minimal effective dose in test [2] (setting [5]) was above 10 mg/kg. The 50% inhibitory concentration (IC50) in test [4] came out at 9.5 nM.
The corresponding values for `COCCN1C2=C(C(=O)Nc3cccs3)C(=O)CCN2c2ccc(F)cc21` [Compound 139] are below 1 mg/kg, around 0.2 mg/kg, around 1 mg/kg and 1.79 nM.
For `COCCN1C2=C(C(=O)Nc3nccs3)C(=O)CCN2c2ccccc21` [Compound 102], in that order: around 1 mg/kg, around 6 mg/kg, 10 mg/kg and 8.82 nM.
The corresponding values for `CCOCCN1C2=C(C(=O)Nc3ccc(C)s3)C(=O)CCN2c2ccc(F)cc21` [Compound 131] are below 1 mg/kg, around 0.6 mg/kg, around 1 mg/kg and 1.03 nM.
On to “7-Fluoro-1,2-dihydro-5-[2-(methoxy)ethoxymethyl]-3-oxo-N-(2-fluorophenyl)pyrido[1,2-a]benzimidazole-4-carboxamide [Compound 160]”, for which the “Mouse Metrazol (ED50, mg/kg) ip” value in test [1] (mouse) is below 1 mg/kg. For the same compound, the “Rat Conflict (MED, mg/kg) ip” value in test [2] (rat, ip) is below 10 mg/kg. In addition, the “Rat Conflict (MED, mg/kg) po” value in test [2] (rat, po) is 1 mg/kg. Besides, the “Mouse Metrazol (ED50, mg/kg) po” value in test [3] (mouse) is reported as 0.3 mg/kg. Moreover, in test [4], the IC50 worked out at 0.48 nM.
In the case of `CCN(CC)CCN1C2=C(C(=O)Nc3ccccc3F)C(=O)CCN2c2ccc(F)cc21` [Compound 71], the figures for the median effective dose (ED50) in test [1] (mouse) and in test [3] (mouse) were 2 mg/kg and 10 mg/kg, respectively. In addition, the minimal effective dose in test [2] (setting [6]) is below 10 mg/kg; in test [2] (setting [5]), above 10 mg/kg. For the same compound, the half-maximal inhibitory concentration (IC50) in test [4] was 74.5 nM.
For `O=C1CCN2C(=C1C(=O)Nc1ccccc1F)N(COCc1ccccc1)c1cc(F)ccc12` [Compound 167], in that order: below 1 mg/kg, below 30 mg/kg, above 10 mg/kg, above 10 mg/kg and 0.26 nM.
Turning to `COc1cccc(NC(=O)C2=C3N(CC#N)c4ccccc4N3CCC2=O)c1` [Compound 90], the ED50 in test [1] (setting [7]) was below 1 mg/kg; in test [3] (setting [7]), 0.5 mg/kg. Besides, the minimal effective dose in test [2] (setting [9]) came out at 1 mg/kg. In addition, in test [4] (setting [10]), the IC50 was 6.04 nM.
In the case of `O=C(O)CN1C2=C(C(=O)Nc3ccccc3F)C(=O)CCN2c2ccc(F)cc21` [Compound 177], the values for the ED50 in test [1] (mouse) and in test [3] (mouse) were above 1 mg/kg and above 30 mg/kg, respectively. In test [2] (setting [5]), the minimal effective dose was above 10 mg/kg. For the same compound, the IC50 in test [4] was determined as 54.8 nM.
As for `O=C1CCN2C(=C1C(=O)Nc1ccccc1F)N(CCCOCc1ccccc1)c1cc(F)ccc12` [Compound 170], the figures for the median effective dose (ED50) in test [1] (mouse) and in test [3] (mouse) were below 1 mg/kg and below 30 mg/kg, respectively. Moreover, the minimal effective dose in test [2] (setting [6]) was below 10 mg/kg; in test [2] (setting [5]) it was above 10 mg/kg. The IC50 in test [4] was found to be 0.21 nM.
Turning to `COCCN1C2=C(C(=O)Nc3ccc(F)cc3F)C(=O)CCN2c2ccc(F)cc21` [Compound 136], the ED50 in test [1] (mouse) is below 1 mg/kg; in test [3] (mouse), 0.3 mg/kg. Besides, the minimal effective dose in test [2] (setting [5]) was determined as 0.3 mg/kg. Also, the concentration for half-maximal inhibition (IC50) in test [4] amounted to 5.55 nM.
Consider `CCOCN1C2=C(C(=O)Nc3ccc(Cl)s3)C(=O)CCN2c2ccc(F)cc21` [Compound 134], for which the ED50 is below 1 mg/kg in test [1] (mouse) and 2 mg/kg in test [3] (mouse). Besides, the minimal effective dose in test [2] (setting [5]) was above 10 mg/kg. Moreover, in test [4], the IC50 is 1.81 nM.

The term ED50 denotes the dose at which the effect has come halfway, by size or by number of responders. Read a high ED50 as weaker potency. Usually IC50 stands for the point on the concentration scale where inhibition reaches its midpoint.
